Earlier results, collected in US11214591B2, “Enzyme compositions, steroid derivatives, enzyme inhibitors, and methods of making same for pharmaceutical applications” (BOARD OF REGENTS, THE UNIVERSITY OF TEXAS SYSTEM, priority 2018, dated 2022).

Assays:
[1] = male rats
[2] = in vivo
[3] = in vivo; remark: listed apart in the source
[4] = mice feeding study; bile acid composition of micelles

For `C[C@]12CC[C@H](O)CC1=CC(=O)[C@@H]1[C@@H]2CC[C@]2(C)C(=O)CC[C@@H]12` [7-Keto DHEA, 7-keto dehydroepiandrosterone], the “voluntary intake of ethanol” value [1] is given as “decreased voluntary intake of ethanol”.
In the case of `CC(=O)O[C@H]1CC[C@@]2(C)C(=CC(=O)[C@@H]3[C@@H]2CC[C@]2(C)C(=O)CC[C@@H]32)C1` [7-keto DHEA-3OAc, 7-keto dehydroepiandrosterone-3-acetate], the “resting metabolic rate associated with dieting” value [2] is listed as “reverse the resting metabolic rate associated with dieting” and the PTSD symptoms [3] is listed as “reduce post-traumatic stress disorder (PTSD) symptoms”.
For `C[C@H](CCC(=O)O)[C@H]1CC[C@H]2[C@@H]3[C@H](O)C[C@@H]4C[C@H](O)CC[C@]4(C)[C@H]3CC[C@]12C` [chenodeoxycholic acid], the cholesterol absorption [4] is given as 60%.
